# Reference: patent US20230212549A1, “COMPOUNDS COMPRISING A […] LIGAND AND USE THEREOF” (priority 2021, published 2023)
# Numbered stars: 1 amine (or outer) side, 2 acyl side, 3 side chain; on linkers, the order of the positions; unused ones are H or OH. Bridge positions count the residues as written; N and C are the ends. Square brackets hold non-standard residues; d marks the D form. Peptide text beside a SMILES is read from it. * marks the point of attachment. ξ: configuration not given here. X17 = NC(=O)[C@H](CCCCNC(=O)CN1CCN(CC(=O)O)CCN(CC(=O)O)CCN(CC(=O)O)CC1)NC(=O)CCC(=O)NCCCOCCOCCOCCCN*; TBMB(SCH2CH2NH-DOTA) = O=C(O)CN1CCN(CC(=O)O)CCN(CC(=O)NCCSCc2cc(C[*:1])cc(C[*:2])c2)CCN(CC(=O)O)CC1; X7 = O=C(CCP(=O)(O)CN1CCN(CP(=O)(O)CO)CCN(CP(=O)(O)CO)CC1)NCCSCc1cc(C[*:1])cc(C[*:2])c1; X11 = O=C(O)CN1CCN(CC(=O)O)CCN(C(CCC(=O)NCCSCc2cc(C[*:1])cc(C[*:2])c2)C(=O)O)CC1; 1Nal = N[C@@H](Cc1cccc2ccccc12)C(=O)O; mXylylene = c1cc(C[*:1])cc(C[*:2])c1; Hexanoyl = CCCCCC(=O)*; CO = O=C([*:1])[*:2]; ξC = NC(CS)C(=O)O; NHBu = CCCCN*
# Experiments:
# [1] = target: T1, FAP-expressing human WI-38 fibroblasts (Homo sapiens, UniProt Q12884); assay: Competitive FACS binding assay
# T1 construct: FAP-expressing human WI-38 fibroblasts (ECACC) were cultured in EMEM; host or cells: WI-38 human fibroblasts
# T1 sequence (Q12884 whole entry): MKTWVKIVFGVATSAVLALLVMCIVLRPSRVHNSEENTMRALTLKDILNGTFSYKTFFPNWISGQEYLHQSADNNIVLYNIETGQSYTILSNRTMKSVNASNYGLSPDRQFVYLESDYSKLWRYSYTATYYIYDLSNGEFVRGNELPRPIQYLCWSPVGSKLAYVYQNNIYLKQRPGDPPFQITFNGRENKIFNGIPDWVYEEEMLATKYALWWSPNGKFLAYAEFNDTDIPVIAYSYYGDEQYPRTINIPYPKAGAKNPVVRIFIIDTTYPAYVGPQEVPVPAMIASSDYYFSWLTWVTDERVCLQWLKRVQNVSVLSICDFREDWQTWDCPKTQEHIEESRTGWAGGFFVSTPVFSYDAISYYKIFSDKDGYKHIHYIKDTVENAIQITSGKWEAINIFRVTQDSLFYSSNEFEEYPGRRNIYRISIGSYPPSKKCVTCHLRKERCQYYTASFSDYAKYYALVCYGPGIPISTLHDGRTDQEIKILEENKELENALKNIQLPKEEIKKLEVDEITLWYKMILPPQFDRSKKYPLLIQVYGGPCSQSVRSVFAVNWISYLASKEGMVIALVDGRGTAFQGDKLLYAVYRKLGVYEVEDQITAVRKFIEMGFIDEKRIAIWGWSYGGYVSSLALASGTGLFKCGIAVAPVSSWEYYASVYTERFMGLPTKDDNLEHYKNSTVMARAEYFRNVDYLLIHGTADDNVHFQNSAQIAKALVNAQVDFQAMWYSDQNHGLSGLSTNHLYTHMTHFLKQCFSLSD
# Experimental: Cells were analyzed in an Attune NxT flow cytometer. […] […].
# Cells were analyzed in an Attune NxT flow cytometer. […]
# Human recombinant FAP [2] = target: T2, Human recombinant FAP (Homo sapiens, UniProt Q12884); assay: Surface plasmon resonance (Biacore) assay; type: binding
# T2 sequence (Q12884 whole entry): as above
# Human recombinant FAP [3] = target: T2, Human recombinant FAP; assay: FRET-based FAP protease activity assay; type: biochemical; parameters: purchased R&D systems 3715-SE
# in vivo = settings: female, athymic nude, mouse, iv
# [4] = pIC50 Category (Activity), FRET-based FAP protease activity assay, recombinant human FAP, 37° C.
# [5] = pIC50 Category (activity), Recombinant human FAP
# [6] = FAP-expressing human WI-38 fibroblasts
compound,measurement,setting,value
"CCCCCC(=O)N[C@H]1CSCc2cccc(c2)CSC[C@@H](C(=O)N[C@@H](CC(=O)O)C(=O)NCCCOCCOCCOCCCNC(=O)CCC(=O)N[C@@H](CCCCNC(=O)CN2CCN(CC(=O)O)CCN(CC(=O)O)CCN(CC(=O)O)CC2)C(N)=O)NC(=O)[C@H](Cc2ccccc2)NC(=O)[C@H](CCC(N)=O)NC(=O)[C@H]([C@@H](C)O)NC(=O)[C@@H]2CCCN2C(=O)[C@@H]2CCCN2C1=O [3BP-3395, Hex-[Cys(3MeBn)-Pro-Pro-Thr-Gln-Phe-Cys]-Asp-Ttds-Lys(DOTA)-NH2] (Hexanoyl-CPPTQFCD-X17; linker 1-7 via mXylylene)",IC50,[1],< 10 nM
same,Kd,Human recombinant FAP [2],< 10 nM
same,IC50,Human recombinant FAP [3]; [4],< 10 nM
"CCCCCC(=O)N[C@H]1CSCc2cccc(c2)CSC[C@@H](C(=O)N[C@@H](CC(=O)O)C(=O)NCCCOCCOCCOCCCNC(=O)CCC(=O)N[C@@H](CCCCNC(=O)CN2CCN(CC(=O)O)CCN(CC(=O)O)CCN(CC(=O)O)CC2)C(N)=O)NC(=O)[C@H](Cc2ccccc2)NC(=O)[C@H](CCC(=O)O)NC(=O)[C@H]([C@@H](C)O)NC(=O)[C@@H]2CCCN2C(=O)[C@@H]2CCCN2C1=O [3BP-3396, Hex-[Cys(3MeBn)-Pro-Pro-Thr-Glu-Phe-Cys]-Asp-Ttds-Lys(DOTA)-NH2] (Hexanoyl-CPPTEFCD-X17; linker 1-7 via mXylylene)",IC50,[1],< 10 nM
same,Kd,Human recombinant FAP [2],< 10 nM
same,IC50,Human recombinant FAP [3]; [4],< 10 nM
"CCCCCC(=O)N[C@H]1CSCc2cc(CSCCNC(=O)CN3CCN(CC(=O)O)CCN(CC(=O)O)CCN(CC(=O)O)CC3)cc(c2)CSC[C@@H](C(=O)O)NC(=O)[C@H](Cc2cccc3ccccc23)NC(=O)[C@H](CCC(N)=O)NC(=O)[C@H]([C@@H](C)O)NC(=O)[C@@H]2CCCN2C(=O)[C@@H]2CCCN2C1=O [3BP-3650, Hex-[Cys(tMeBn(DOTA-AET))-Pro-Pro-Thr-Gln-1Ni-Cys]-OH] (Hexanoyl-CPPTQ[1Nal]C-OH; linker 1-7 via TBMB(SCH2CH2NH-DOTA))",IC50,[1],< 10 nM
same,Kd,Human recombinant FAP [2],< 10 nM
same,IC50,Human recombinant FAP [3]; [4],< 10 nM
"CCCCCC(=O)N[C@H]1CSCc2cc(CSCCNC(=O)CCC(=O)NCCCOCCOCCOCCCNC(=O)CCC(=O)NCCCOCCOCCOCCCNC(=O)CCC(=O)NCCCOCCOCCOCCCNC(=O)CCC(=O)NCCCOCCOCCOCCCNC(=O)c3ccc4c(c3)C(=O)OC43c4ccc(N)c(S(=O)(=O)O)c4Oc4c3ccc(N)c4S(=O)(=O)O)cc(c2)CSC[C@@H](C(=O)O)NC(=O)[C@H](Cc2ccccc2)NC(=O)[C@H](CCC(N)=O)NC(=O)[C@H]([C@@H](C)O)NC(=O)[C@@H]2CCCN2C(=O)[C@@H]2CCCN2C1=O [3BP-4232, Hex--[C(tMeBn(AF488--Ttds--Ttds--Ttds--Ttds--AET))-PPTQFC]-OH]",Kd,Human recombinant FAP [2],100 to 794 nM
"CCCC[C@H](NC(=O)CCC(=O)NCCCOCCOCCOCCCNC(=O)CCC(C(=O)O)N1CCN(CC(=O)O)CCN(CC(=O)O)CC1)C(=O)N[C@H]1CSCc2cccc(c2)CSCC(C(=O)O)NC(=O)[C@H](Cc2ccccc2)NC(=O)[C@H](CCC(N)=O)NC(=O)[C@H]([C@@H](C)O)NC(=O)[C@@H]2CCCN2C(=O)[C@@H]2CCCN2C1=O (stereo partly drawn) [3BP-4714, NODAGA-Ttds-Nle-[Cys(3MeBn)-Pro-Pro-Thr-Glu-Phe-Cys]-OH]",IC50,[1],10 to 79.4 nM
same,tissue uptake at 0.25 h,in vivo; blood pool surrogate (BPS),1.52 %ID/g
same,tissue uptake at 1 h,in vivo; blood pool surrogate (BPS),0.65 %ID/g
same,tissue uptake at 3 h,in vivo; blood pool surrogate (BPS),0.32 %ID/g
same,tissue uptake at 0.25 h,in vivo; kidneys,5 %ID/g
same,tissue uptake at 1 h,in vivo; kidneys,3.82 %ID/g
same,tissue uptake at 3 h,in vivo; kidneys,3.83 %ID/g
same,tissue uptake at 0.25 h,in vivo; tumor,5.15 %ID/g
same,tissue uptake at 1 h,in vivo; tumor,5.44 %ID/g
same,tissue uptake at 3 h,in vivo; tumor,5.49 %ID/g
same,IC50,Human recombinant FAP [3]; [5],10 to 79.4 nM
"CCCCNC(=O)N[C@H]1CSCc2cc(CSCCNC(=O)CCC(C(=O)O)N3CCN(CC(=O)O)CCN(CC(=O)O)CC3)cc(c2)CSCC(C(=O)O)NC(=O)[C@H](Cc2ccccc2)NC(=O)[C@H](CCC(=O)O)NC(=O)[C@H]([C@@H](C)O)NC(=O)[C@@H]2CCCN2C(=O)[C@@H]2CCCN2C1=O (stereo partly drawn) [3BP-4724, nBu-CAyl-[Cys(tMeBn(NODAGA-AET))-Pro-Pro-Thr-Glu-Phe-Cys]-OH] ({NHBu-CO}-CPPTEF[ξC]-OH; linker 1-7 via X11)",IC50,[1],< 10 nM
same,tissue uptake at 0.25 h,"in vivo; blood pool surrogate (BPS), uptake BPS 0.25 h, ^68Ga-labeled, BPS (blood pool surrogate), PET/CT, 0.25 h post tracer injection",2.17 %ID/g
same,tissue uptake at 1 h,"in vivo; blood pool surrogate (BPS), uptake BPS 1 h, ^68Ga-labeled, BPS (blood pool surrogate), PET/CT, 1 h post tracer injection",1.04 %ID/g
same,tissue uptake at 3 h,"in vivo; blood pool surrogate (BPS), uptake BPS 3 h, ^68Ga-labeled, BPS (blood pool surrogate), PET/CT, 3 h post tracer injection",0.49 %ID/g
same,tissue uptake at 0.25 h,"in vivo; kidneys, uptake Kidneys 0.25 h, ^68Ga-labeled, PET/CT, 0.25 h post tracer injection",4.28 %ID/g
same,tissue uptake at 1 h,"in vivo; kidneys, uptake Kidneys 1 h, ^68Ga-labeled, PET/CT, 1 h post tracer injection",1.87 %ID/g
same,tissue uptake at 3 h,"in vivo; kidneys, uptake Kidneys 3 h, ^68Ga-labeled, PET/CT, 3 h post tracer injection",0.86 %ID/g
same,tissue uptake at 0.25 h,"in vivo; tumor, uptake Tumor 0.25 h, ^68Ga-labeled, HEK-FAP tumor, PET/CT, 0.25 h post tracer injection",3.87 %ID/g
same,tissue uptake at 1 h,"in vivo; tumor, uptake Tumor 1 h, ^68Ga-labeled, HEK-FAP tumor, PET/CT, 1 h post tracer injection",4.37 %ID/g
same,tissue uptake at 3 h,"in vivo; tumor, uptake Tumor 3 h, ^68Ga-labeled, HEK-FAP tumor, PET/CT, 3 h post tracer injection",4.46 %ID/g
same,IC50,Human recombinant FAP [3]; [5],10 to 79.4 nM
"CCCCCC(=O)N[C@H]1CSCc2cc(CSCCNC(=O)CCP(=O)(O)CN3CCN(CP(=O)(O)CO)CCN(CP(=O)(O)CO)CC3)cc(c2)CSC[C@@H](C(=O)O)NC(=O)[C@H](Cc2ccccc2)NC(=O)[C@H](CCC(=O)O)NC(=O)[C@H]([C@@H](C)O)NC(=O)[C@@H]2CCCN2C(=O)[C@@H]2CCCN2C1=O [3BP-4816, Hex-[C(tMeBn(GaNOPO-AET))-PPTEFC]-OH] (Hexanoyl-CPPTEFC-OH; linker 1-7 via X7)",pIC50 Category (FACS),[1]; [6],B (category B for pIC50 values between 7.1 and 8.0)
same,pIC50 Category (activity),Human recombinant FAP [3]; Recombinant human FAP,B (category B for pIC50 values between 7.1 and 8.0)
"CCCCCC(=O)N[C@H]1CSCc2cc(CSCCNC(=O)CCP(=O)(O)CN3CCN(CP(=O)(O)CO)CCN(CP(=O)(O)CO)CC3)cc(c2)CSCC(C(=O)O)NC(=O)[C@H](Cc2ccccc2)NC(=O)[C@H](CCC(=O)O)NC(=O)[C@H]([C@@H](C)O)NC(=O)[C@@H]2CCCN2C(=O)[C@@H]2CCCN2C1=O (stereo partly drawn) [3BP-4818, Hex-[Cys(tMeBn(NOPO-AET))-Pro-Pro-Thr-Glu-Phe-Cys]-OH] (Hexanoyl-CPPTEF[ξC]-OH; linker 1-7 via X7)",IC50,[1],10 to 79.4 nM
same,IC50,Human recombinant FAP [3]; [5],10 to 79.4 nM
"CCCCNC(=O)N[C@H]1CSCc2cc(CSCCNC(=O)CCP(=O)(O)CN3CCN(CP(=O)(O)CO)CCN(CP(=O)(O)CO)CC3)cc(c2)CSC[C@@H](C(=O)O)NC(=O)[C@H](Cc2ccccc2)NC(=O)[C@H](CCC(N)=O)NC(=O)[C@H]([C@@H](C)O)NC(=O)[C@@H]2CCCN2C(=O)[C@@H]2CCCN2C1=O [3BP-5260, nBu-CAyl-[C(tMeBn(GaNOPO-AET))-PPTQFC]-OH]",pIC50 Category (FACS),[1]; [6],A (pIC50 category A stands for pIC50 values >8.0)
same,pIC50 Category (activity),Human recombinant FAP [3]; Recombinant human FAP,A (pIC50 category A stands for pIC50 values >8.0)
"CCCCCC(=O)N[C@H]1CSCc2cc(CSCCNC(=O)COc3ccc4nc3CN(CC(=O)O)CCN(CC(=O)O)CCN(CC(=O)O)C4)cc(c2)CSCC(C(=O)O)NC(=O)[C@H](Cc2ccccc2)NC(=O)[C@H](CCC(N)=O)NC(=O)[C@H]([C@@H](C)O)NC(=O)[C@@H]2CCCN2C(=O)[C@@H]2CCCN2C1=O (stereo partly drawn) [3BP-5273, Hex-[Cys(tMeBn(AcPCTA-AET))-Pro-Pro-Thr-Gln-Phe-Cys]-OH]",IC50,[1],< 10 nM
same,IC50,Human recombinant FAP [3]; [5],< 10 nM
"CCCCCC(=O)N[C@H]1CSCc2cc(CSCCNC(=O)CN3CCN(CC(=O)O)CCN(CC(N)=O)CCN(CC(=O)O)CC3)cc(c2)CSCC(C(=O)O)NC(=O)[C@H](Cc2ccccc2)NC(=O)[C@H](CCC(N)=O)NC(=O)[C@H]([C@@H](C)O)NC(=O)[C@@H]2CCCN2C(=O)[C@@H]2CCCN2C1=O (stereo partly drawn) [3BP-5288, Hex-[Cys(tMeBn(LSC-AET))-Pro-Pro-Thr-Gln-Phe-Cys]-OH]",IC50,[1],< 10 nM
same,IC50,Human recombinant FAP [3]; [5],< 10 nM
Hex-[Cys(3MeBn)-Pro-Pro-Thr-Glu-Phe-Cys]-Asp-Omp-Arg-NH2 [3BP-3302],pIC50 Category (FACS),"[1]; competition with 3 nM Cy5-labeled compound, WI-38 fibroblasts, 4° C., 1 hour",A (pIC50 category A stands for pIC50 values >8.0)
same,pIC50 Category (activity),"Human recombinant FAP [3]; FRET-based FAP protease activity assay, recombinant human FAP, 37° C.",A (pIC50 category A stands for pIC50 values >8.0)
